The values below come from US10035801B2, “Pyrazolo compounds and uses thereof” (CONSTELLATION PHARMACEUTICALS, INC., priority 2013, dated 2018).

The IC50 is the concentration at which inhibition is half-maximal.

In one assay the target is T1, KDM5A (Homo sapiens, UniProt P29375).
T1 construct: Full length KDM5A enzyme was expressed and purified inhouse; made in house
T1 sequence (P29375 whole entry): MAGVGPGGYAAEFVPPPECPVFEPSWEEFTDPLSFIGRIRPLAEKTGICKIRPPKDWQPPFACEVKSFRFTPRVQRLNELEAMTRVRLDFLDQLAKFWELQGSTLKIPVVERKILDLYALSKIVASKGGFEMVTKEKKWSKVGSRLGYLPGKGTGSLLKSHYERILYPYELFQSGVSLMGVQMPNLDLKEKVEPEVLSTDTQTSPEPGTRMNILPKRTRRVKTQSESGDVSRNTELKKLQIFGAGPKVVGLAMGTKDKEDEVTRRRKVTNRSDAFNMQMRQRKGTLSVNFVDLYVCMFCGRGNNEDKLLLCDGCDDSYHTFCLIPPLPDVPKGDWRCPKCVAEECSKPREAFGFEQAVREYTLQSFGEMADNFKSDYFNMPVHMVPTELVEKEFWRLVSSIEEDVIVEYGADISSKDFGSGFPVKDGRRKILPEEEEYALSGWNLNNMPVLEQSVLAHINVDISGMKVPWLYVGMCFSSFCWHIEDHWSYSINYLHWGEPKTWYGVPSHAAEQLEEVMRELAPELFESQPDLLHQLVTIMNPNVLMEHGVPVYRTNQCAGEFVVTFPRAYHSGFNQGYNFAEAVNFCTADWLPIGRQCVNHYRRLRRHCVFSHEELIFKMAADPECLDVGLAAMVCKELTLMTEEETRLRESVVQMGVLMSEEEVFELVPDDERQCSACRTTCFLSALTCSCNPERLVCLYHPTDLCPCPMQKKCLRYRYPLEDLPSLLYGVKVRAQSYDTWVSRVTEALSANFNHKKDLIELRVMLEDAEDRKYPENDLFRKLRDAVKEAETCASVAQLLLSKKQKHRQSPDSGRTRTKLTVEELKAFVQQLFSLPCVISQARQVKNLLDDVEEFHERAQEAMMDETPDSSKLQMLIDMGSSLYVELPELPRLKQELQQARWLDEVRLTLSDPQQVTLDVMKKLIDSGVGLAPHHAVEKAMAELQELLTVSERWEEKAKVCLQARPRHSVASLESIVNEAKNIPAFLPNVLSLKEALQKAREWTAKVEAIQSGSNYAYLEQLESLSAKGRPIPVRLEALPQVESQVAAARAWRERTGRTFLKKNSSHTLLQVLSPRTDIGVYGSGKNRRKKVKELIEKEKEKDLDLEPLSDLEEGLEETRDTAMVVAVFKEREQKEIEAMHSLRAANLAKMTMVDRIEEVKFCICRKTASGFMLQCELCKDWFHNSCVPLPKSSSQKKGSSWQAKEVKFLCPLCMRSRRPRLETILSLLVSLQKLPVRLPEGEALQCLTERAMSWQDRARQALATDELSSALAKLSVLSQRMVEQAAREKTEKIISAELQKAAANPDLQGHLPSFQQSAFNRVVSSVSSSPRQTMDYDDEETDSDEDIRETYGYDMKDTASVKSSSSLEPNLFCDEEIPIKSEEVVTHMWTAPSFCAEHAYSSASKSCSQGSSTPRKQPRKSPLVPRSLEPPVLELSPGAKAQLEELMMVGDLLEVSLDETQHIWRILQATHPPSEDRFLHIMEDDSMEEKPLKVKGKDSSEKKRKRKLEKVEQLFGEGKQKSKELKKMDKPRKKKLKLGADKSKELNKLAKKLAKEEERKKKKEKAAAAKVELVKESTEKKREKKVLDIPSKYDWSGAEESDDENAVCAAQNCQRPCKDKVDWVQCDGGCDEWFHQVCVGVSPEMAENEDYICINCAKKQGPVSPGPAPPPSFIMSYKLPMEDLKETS
The assay is described as follows: KDM5 enzyme assay, KDM5A HTRF (Example 463). The format is biochemical.
Conditions: not given
In turn, `CC(C)c1c(-c2ccc(Cl)cc2)[nH]c2c(C#N)cnn2c1=O` [Example 341] gave a half-maximal inhibitory concentration (IC50) of 0.021 µM.

Still in this assay, the particulars now being: compounds of Examples 1-432; read-out: Example 463 Assay KDM5A HTRF IC50.
Consider `CC(C)c1c(-c2cnn(C(C)c3cscn3)c2)[nH]c2c(C#N)cnn2c1=O` (stereo not shown) [Example 253], for which the IC50 worked out at 0.013 µM.

On to `CC(C)c1c(-c2cnn(C3CCSCC3)c2)[nH]c2c(C#N)cnn2c1=O` [Example 17, 6-isopropyl-7-oxo-5-(1-(tetrahydro-2H-thiopyran-4-yl)-1H-pyrazol-4-yl)-4,7-dihydropyrazolo[1,5-a]pyrimidine-3-carbonitrile], for which the IC50 was found to be 0.041 µM.

With `CC(C)c1c(-c2cnn(C3CCCCC3)c2)[nH]c2c(C#N)cnn2c1=O` [Example 104], the half-maximal inhibitory concentration (IC50) was 0.021 µM.

With `CC(C)c1c(-c2cnn(Cc3ccccc3-c3ccccc3)c2)[nH]c2c(C#N)cnn2c1=O` [Example 126], the IC50 stood at 0.008 µM.

On to `CCC(=O)N1CCC=C(c2[nH]c3c(C#N)cnn3c(=O)c2C(C)C)C1` [Example 290], for which the half-maximal inhibitory concentration (IC50) worked out at 0.039 µM.

In the case of `N#Cc1cnn2c(=O)cc(-c3cc(N)cc(-c4ccccc4)c3)[nH]c12` [Example 43, 5-(3-amino-5-phenyl-phenyl)-7-oxo-4H-pyrazolo[1,5-a]pyrimidine-3-carbonitrile], the concentration for half-maximal inhibition (IC50) came out at 0.083 µM.

For `CC(C)c1c(-c2cccc(C(F)(F)F)c2)n(C)c2c(C#N)cnn2c1=O` [Example 164], the IC50 was found to be 0.15 µM.

For the compound `CC(=O)NCCn1cc(-c2[nH]c3c(C#N)cnn3c(=O)c2C(C)C)cn1` [Example 242], the half-maximal inhibitory concentration (IC50) was 0.027 µM.

As to `CC(=O)NCCCc1c(-c2ccccc2)[nH]c2c(C#N)cnn2c1=O` [Example 251], the IC50 was 8 µM.

For the compound `Cc1nc2cc(-c3[nH]c4c(C#N)cnn4c(=O)c3C(C)C)ccc2s1` [Example 121], the concentration for half-maximal inhibition (IC50) amounted to 0.01 µM.

Consider `CCS(=O)(=O)c1cccc(-c2[nH]c3c(C#N)cnn3c(=O)c2C(C)C)c1` [Example 327], for which the half-maximal inhibitory concentration (IC50) came to 0.048 µM.

Regarding `CCc1c(-c2nnc(C)o2)[nH]c2c(C#N)cnn2c1=O` [Example 29, 6-ethyl-5-(5-methyl-1,3,4-oxadiazol-2-yl)-7-oxo-4,7-dihydropyrazolo[1,5-a]pyrimidine-3-carbonitrile], the IC50 was 0.016 µM.

As to `CC(C)c1c(/C=C/c2ccccc2)[nH]c2c(C#N)cnn2c1=O` [Example 131], the IC50 was found to be 0.018 µM.

For `CNS(=O)(=O)c1cccc(-c2[nH]c3c(C#N)cnn3c(=O)c2C(C)C)c1` [Example 273], the IC50 stood at 0.023 µM.

For `CNC(=O)c1ccc(-c2[nH]c3c(C#N)cnn3c(=O)c2C(C)C)cc1` [Compound 368], the IC50 is 0.075 µM.

As for `CC(C)c1c(-c2ccoc2)n(C)c2c(C#N)cnn2c1=O` [Example 4, 5-(furan-3-yl)-6-isopropyl-4-methyl-7-oxo-4,7-dihydropyrazolo[1,5-a]pyrimidine-3-carbonitrile], the IC50 amounted to 0.065 µM.

As for `COc1cc(-c2[nH]c3c(C#N)cnn3c(=O)c2C(C)C)ccc1C` [Example 140], the IC50 worked out at 0.012 µM.

In the case of `CC(C)c1c(-c2cccc(-c3cccc(C#N)c3)c2)[nH]c2c(C#N)cnn2c1=O` [Compound 427], the IC50 is 0.039 µM.

For the compound `CC(C)c1c(-c2cnn(C(C)(C)CO)c2)[nH]c2c(C#N)cnn2c1=O` [Example 98], the IC50 was 0.037 µM.

Turning to `CC(C)c1c(-c2ccnn2CCC2CC2)[nH]c2c(C#N)cnn2c1=O` [Compound 419], the half-inhibitory concentration (IC50) came out at 0.088 µM.

Take `CC(C)c1c(-c2ccsc2)[nH]c2c(C#N)cnn2c1=O` [Example 83]: the IC50 worked out at 0.012 µM.

Consider `CC(C)c1c(NC(=O)c2ccccc2)[nH]c2c(C#N)cnn2c1=O` [Example 214], for which the concentration for half-maximal inhibition (IC50) stood at 0.026 µM.

Turning to `CC(C)c1c(-c2cnn(C)c2)[nH]c2c(C#N)cnn2c1=O` [Example 85], the IC50 came to 0.012 µM.

In the case of `COc1cccc(-c2[nH]c3c(C#N)cnn3c(=O)c2C(C)C)c1` [Example 89], the half-inhibitory concentration (IC50) came to 0.01 µM.

On to `CCc1c(C(N)=O)n(C)c2c(C#N)cnn2c1=O` [Example 26, 3-cyano-6-ethyl-4-methyl-7-oxo-4,7-dihydropyrazolo[1,5-a]pyrimidine-5-carboxamide], for which the IC50 was determined as 4.4 µM.

With `COC(=O)c1cc(-c2[nH]c3c(C#N)cnn3c(=O)c2C(C)C)ccc1Cl` [Example 256], the 50% inhibitory concentration (IC50) was 0.015 µM.

Regarding `CCOC(=O)c1c(CC)c(=O)n2ncc(C#N)c2n1C` [Example 199], the IC50 was 0.18 µM.

As for `CC(C)c1c(-c2ccn(-c3ccccc3)n2)[nH]c2c(C#N)cnn2c1=O` [Example 51], the IC50 worked out at 0.0083 µM.

On to `Cc1c(-c2ccccc2)c(=O)n2ncc(C#N)c2n1C` [Example 221], for which the IC50 was 25 µM.

As for `CC(C)c1c(-c2ccc(Cl)c(Cl)c2)[nH]c2c(C#N)cnn2c1=O` [Example 138], the IC50 is 0.015 µM.

`C=CC(=O)N1CC(n2cc(-c3[nH]c4c(C#N)cnn4c(=O)c3C(C)C)cn2)C1` [Compound 391]: the concentration for half-maximal inhibition (IC50) came out at 0.011 µM.

Take `COCCn1cc(-c2[nH]c3c(C#N)cnn3c(=O)c2C(C)C)cn1` [Example 133]: the half-inhibitory concentration (IC50) was found to be 0.011 µM.

In the case of `CC(C)c1c(-c2cnn(C)c2)n(C)c2c(C#N)cnn2c1=O` [Example 167], the IC50 amounted to 0.1 µM.

With `CC(C)c1c(-c2cnn(C(C)(C)c3ccccc3)c2)[nH]c2c(C#N)cnn2c1=O` [Example 9, 6-Isopropyl-7-oxo-5-(1-(2-phenylpropan-2-yl)-1H-pyrazol-4-yl)-4,7-dihydropyrazolo[1,5-a]pyrimidine-3-carbonitrile], the IC50 turned out to be 0.04 µM.

`CC(C)c1c(-c2cccc(OC(F)(F)F)c2)[nH]c2c(C#N)cnn2c1=O` [Example 328]: the IC50 stood at 0.03 µM.

For `CC(C)c1c(-c2cccc(F)c2)n(C)c2c(C#N)cnn2c1=O` [Example 163], the half-maximal inhibitory concentration (IC50) was 0.097 µM.

Consider `C=Cc1c(C(C)C)c(=O)n2ncc(C#N)c2n1C` [Example 179], for which the concentration for half-maximal inhibition (IC50) was 0.035 µM.

`CC(c1c(-c2ccccc2)[nH]c2c(C#N)cnn2c1=O)C1CC1` (stereo not shown) [Example 39, 6-(1-cyclopropylethyl)-7-oxo-5-phenyl-4H-pyrazolo[1,5-a]pyrimidine-3-carbonitrile]: the IC50 was 0.128 µM.

As to `CC(C)c1c(-c2cnn(CC3CC3)c2)[nH]c2c(C#N)cnn2c1=O` [Example 6, 5-(1-(Cyclopropylmethyl)-1H-pyrazol-4-yl)-6-isopropyl-7-oxo-4,7-dihydropyrazolo[1,5-a]pyrimidine-3-carbonitrile], the half-maximal inhibitory concentration (IC50) is 0.013 µM.

Consider `CC(C)c1c(-c2ccc(N3CCNCC3)cc2)[nH]c2c(C#N)cnn2c1=O` [Compound 395], for which the IC50 was 0.01 µM.

With `CC(C)c1c(-c2cccc(Nc3ccccc3)c2)[nH]c2c(C#N)cnn2c1=O` [Compound 385], the 50% inhibitory concentration (IC50) is 0.021 µM.

With `CCC(=O)N1CC=C(c2[nH]c3c(C#N)cnn3c(=O)c2C(C)C)CC1` [Example 238], the IC50 came out at 0.049 µM.

On to `CC(C)c1c(-c2cnn(Cc3ccc(Oc4ccccc4)cc3)c2)[nH]c2c(C#N)cnn2c1=O` [Example 103], for which the 50% inhibitory concentration (IC50) amounted to 0.0055 µM.

As to `CC(C)c1c(-c2cc(C3CC3)n[nH]2)[nH]c2c(C#N)cnn2c1=O` [Compound 405], the IC50 amounted to 0.012 µM.

On to `CC(C)c1c(-c2cccc(CNS(C)(=O)=O)c2)[nH]c2c(C#N)cnn2c1=O` [Compound 348], for which the IC50 came out at 0.014 µM.

Take `CC(C)c1c(-c2cn[nH]c2)[nH]c2c(C#N)cnn2c1=O` [Example 5, 6-Isopropyl-7-oxo-5-(1H-pyrazol-4-yl)-4,7-dihydropyrazolo[1,5-a]pyrimidine-3-carbonitrile]: the concentration for half-maximal inhibition (IC50) was determined as 0.0055 µM.

`CC(C)c1c(-c2cc(C3CC3)n(C(C)C)n2)[nH]c2c(C#N)cnn2c1=O` [Compound 408]: the IC50 came out at 0.15 µM.

Take `CCc1c(-c2ccc(-c3ccccc3)cc2)[nH]c2c(C#N)cnn2c1=O` [Example 230]: the IC50 amounted to 0.009 µM.

In the case of `CC(C)c1c(-c2ccc(S(C)(=O)=O)cc2)[nH]c2c(C#N)cnn2c1=O` [Compound 350], the IC50 was determined as 0.02 µM.

On to `CC(C)c1c(-c2coc3ccccc23)[nH]c2c(C#N)cnn2c1=O` [Example 50], for which the IC50 was 0.02 µM.

With `Cn1c(-c2ccccc2)c(C2CC2)c(=O)n2ncc(C#N)c12` [Example 226], the IC50 was 0.37 µM.

`CC(C)c1c(-c2ccc(F)c(C(=O)NC3CCCCC3)c2)[nH]c2c(C#N)cnn2c1=O` [Example 304]: the IC50 was 0.052 µM.

Consider `CC(C)c1c(-c2ccc(C(=O)NC3CC3)cc2)[nH]c2c(C#N)cnn2c1=O` [Compound 351], for which the concentration for half-maximal inhibition (IC50) amounted to 0.027 µM.

`CC(C)c1c(-c2cccc(N3CCOCC3)c2)[nH]c2c(C#N)cnn2c1=O` [Example 311]: the 50% inhibitory concentration (IC50) was 0.028 µM.

With `CC(C)c1c(Oc2ccccc2)[nH]c2c(C#N)cnn2c1=O` [Example 49, 6-isopropyl-7-oxo-5-phenoxy-4,7-dihydropyrazolo[1,5-a]pyrimidine-3-carbonitrile], the IC50 was 0.025 µM.

For the compound `CC(C)c1c(-c2cccc(C(C)(C)O)c2)[nH]c2c(C#N)cnn2c1=O` [Compound 401], the half-maximal inhibitory concentration (IC50) is 0.039 µM.

Regarding `CCc1c(Cl)[nH]c2c(C#N)cnn2c1=O` [Example 2, 5-chloro-6-ethyl-7-oxo-4,7-dihydropyrazolo[1,5-a]pyrimidine-3-carbonitrile], the IC50 came to 0.003 µM.

For the compound `CC(C)c1c(-c2cc(F)cc(C(F)(F)F)c2)[nH]c2c(C#N)cnn2c1=O` [Example 326], the IC50 is 0.014 µM.

For the compound `CC(C)c1c(-c2cnn(C3CCCC3)c2)[nH]c2c(C#N)cnn2c1=O` [Example 94], the IC50 was found to be 0.012 µM.

As to `CC(C)c1c(-c2cc(F)cc(Cl)c2)[nH]c2c(C#N)cnn2c1=O` [Example 264], the IC50 was determined as 0.021 µM.

As for `CC(C)c1c(-c2ccc(C(=O)N3CCCC3)cc2)[nH]c2c(C#N)cnn2c1=O` [Example 344], the half-maximal inhibitory concentration (IC50) came to 0.093 µM.

Turning to `CCn1cc(-c2[nH]c3c(C#N)cnn3c(=O)c2C(C)C)cn1` [Example 55], the IC50 turned out to be 0.011 µM.

On to `CC(C)c1c(C2=CCN(C(=O)OC(C)(C)C)C2)[nH]c2c(C#N)cnn2c1=O` [Example 335], for which the 50% inhibitory concentration (IC50) stood at 0.06 µM.

Turning to `Cc1nc(C)c(-c2[nH]c3c(C#N)cnn3c(=O)c2C(C)C)s1` [Compound 363], the 50% inhibitory concentration (IC50) came out at 0.025 µM.

Turning to `CC(C)c1c(-c2cnn(Cc3ccsc3)c2)[nH]c2c(C#N)cnn2c1=O` [Example 95], the 50% inhibitory concentration (IC50) amounted to 0.011 µM.

For `CC(C)c1c(-c2ccc(F)c(F)c2)[nH]c2c(C#N)cnn2c1=O` [Example 262], the IC50 is 0.021 µM.
